In PubChem BioAssay (NCI):
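Cultured in 96-well plates, cells were exposed to test compound for 48 hours across five concentrations. TGI: concentration producing complete growth inhibition.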

What was measured:
Experiment in all cases: inhibition of tumour cell growth, NCI panel, 48 h
[1] = test system: 786-0 renal
[2] = test system: A549 NSCLC
[3] = test system: ACHN renal
[4] = test system: CAKI-1 renal
[5] = test system: CCRF-CEM leukemia
[6] = test system: COLO 205 colon
[7] = test system: DLD-1 colon
[8] = test system: DMS 114 small cell lung
[9] = test system: DMS 273 small cell lung
[10] = test system: EKVX NSCLC
[11] = test system: HCC-2998 colon
[12] = test system: HCT-116 colon
[13] = test system: HL-60(TB) leukemia
[14] = test system: HOP-18 NSCLC
[15] = test system: HOP-62 NSCLC
[16] = test system: HOP-92 NSCLC
[17] = test system: HT29 colon
[18] = test system: IGROV1 ovarian
[19] = test system: K-562 leukemia
[20] = test system: KM12 colon
[21] = test system: KM20L2 colon
[22] = test system: LOX IMVI melanoma
[23] = test system: LXFL 529 NSCLC
[24] = test system: M14 melanoma
[25] = test system: MALME-3M melanoma
[26] = test system: MOLT-4 leukemia
[27] = test system: NCI-H226 lung
[28] = test system: NCI-H23 lung
[29] = test system: NCI-H460 lung
[30] = test system: NCI-H522 lung
[31] = test system: OVCAR-3 ovarian
[32] = test system: OVCAR-4 ovarian
[33] = test system: OVCAR-5 ovarian
[34] = test system: OVCAR-8 ovarian
[35] = test system: RPMI-8226 leukemia
[36] = test system: RXF 393 renal
[37] = test system: RXF-631 renal
[38] = test system: SF-268 CNS
[39] = test system: SF-295 CNS
[40] = test system: SF-539 CNS
[41] = test system: SK-MEL-2 melanoma
[42] = test system: SK-MEL-28 melanoma
[43] = test system: SK-MEL-5 melanoma
[44] = test system: SK-OV-3 ovarian
[45] = test system: SN12C renal
[46] = test system: SNB-19 CNS
[47] = test system: SNB-75 CNS
[48] = test system: SNB-78 CNS
[49] = test system: SR leukemia
[50] = test system: SW-620 colon
[51] = test system: TK-10 renal
[52] = test system: U251 CNS
[53] = test system: UACC-257 melanoma
[54] = test system: UACC-62 melanoma
[55] = test system: UO-31 renal
[56] = test system: XF 498 CNS
[57] = test system: A498 renal
[58] = test system: HCT-15 colon
[59] = test system: M19-MEL melanoma

For CCOc1ccc(N=Nc2c(-c3ccccc3)nn(C(=O)CC(=O)Nc3cccc(C)c3)c2-c2ccccc2)cc1, the TGI [1] was greater than 100 µM, the TGI [2] was greater than 100 µM and the TGI [3] was greater than 100 µM. The TGI [4] was greater than 100 µM, the TGI [5] was greater than 100 µM and the TGI [6] was greater than 100 µM. It also gave a TGI [7] greater than 100 µM, a TGI [8] greater than 100 µM and a TGI [9] greater than 100 µM. For the same compound, the TGI [10] was greater than 100 µM, the TGI [11] was greater than 100 µM and the TGI [12] was greater than 100 µM. For the same compound, the TGI [13] was greater than 100 µM, the TGI [14] was greater than 100 µM and the TGI [15] was greater than 100 µM. For the same compound, the TGI [16] was greater than 100 µM, the TGI [17] was greater than 100 µM and the TGI [18] was greater than 100 µM. It also gave a TGI [19] greater than 100 µM, a TGI [20] greater than 100 µM and a TGI [21] greater than 100 µM. It also gave a TGI [22] greater than 100 µM, a TGI [23] greater than 100 µM and a TGI [24] greater than 100 µM. It also gave a TGI [25] greater than 100 µM, a TGI [26] greater than 100 µM and a TGI [27] greater than 100 µM. For the same compound, the TGI [28] was greater than 100 µM, the TGI [29] was greater than 100 µM and the TGI [30] was greater than 100 µM. For the same compound, the TGI [31] was greater than 100 µM, the TGI [32] was greater than 100 µM and the TGI [33] was greater than 100 µM. The TGI [34] was greater than 100 µM, the TGI [35] was greater than 100 µM and the TGI [36] was greater than 100 µM. It also gave a TGI [37] greater than 100 µM, a TGI [38] greater than 100 µM and a TGI [39] greater than 100 µM. The TGI [40] was greater than 100 µM, the TGI [41] was greater than 100 µM and the TGI [42] was greater than 100 µM. The TGI [43] was greater than 100 µM, the TGI [44] was greater than 100 µM and the TGI [45] was greater than 100 µM. The TGI [46] was greater than 100 µM, the TGI [47] was greater than 100 µM and the TGI [48] was greater than 100 µM. For the same compound, the TGI [49] was greater than 100 µM, the TGI [50] was greater than 100 µM and the TGI [51] was greater than 100 µM. The TGI [52] was greater than 100 µM, the TGI [53] was greater than 100 µM and the TGI [54] was greater than 100 µM. For the same compound, the TGI [55] was greater than 100 µM and the TGI [56] was greater than 100 µM.

O=[N+]([O-])c1cc([N+](=O)[O-])c(C(Cl)C(Cl)c2ccccc2)cc1C(Cl)C(Cl)c1ccccc1 (centres undefined) gave a TGI [1] of 3.12 µM, a TGI [57] of 3.33 µM and a TGI [2] of 4.51 µM. For the same compound, the TGI [3] was 3.55 µM, the TGI [4] was 3.25 µM and the TGI [5] was 5.96 µM. For the same compound, the TGI [6] was 3.18 µM, the TGI [7] was 3.27 µM and the TGI [8] was 3.34 µM. The TGI [9] was 4.08 µM, the TGI [10] was 4.28 µM and the TGI [11] was 3.33 µM. For the same compound, the TGI [12] was 2.69 µM, the TGI [58] was 3.12 µM and the TGI [13] was greater than 100 µM. The TGI [14] was 3.53 µM, the TGI [15] was 11.9 µM and the TGI [16] was 3.26 µM. For the same compound, the TGI [17] was 4.67 µM, the TGI [18] was 7.53 µM and the TGI [19] was 3.58 µM. The TGI [20] was 3.76 µM, the TGI [21] was 4.22 µM and the TGI [22] was 3.57 µM. The TGI [23] was 2.87 µM, the TGI [24] was 2.93 µM and the TGI [59] was 3.62 µM. The TGI [25] was 3.31 µM, the TGI [26] was greater than 23.3 µM and the TGI [27] was 5.18 µM. For the same compound, the TGI [28] was 3.72 µM, the TGI [30] was 3.39 µM and the TGI [31] was 5.06 µM. The TGI [32] was 7.28 µM, the TGI [33] was 4.43 µM and the TGI [34] was 4.62 µM. It also gave a TGI [35] of 8.38 µM, a TGI [36] of 2.73 µM and a TGI [37] greater than 21.1 µM. The TGI [38] was 4.02 µM, the TGI [39] was 5.17 µM and the TGI [40] was 3.33 µM. For the same compound, the TGI [41] was 3.86 µM, the TGI [42] was 3.95 µM and the TGI [43] was 3.29 µM. It also gave a TGI [44] of 80.1 µM, a TGI [45] of 3.49 µM and a TGI [46] of 6.53 µM. For the same compound, the TGI [47] was 5.17 µM, the TGI [48] was 9.72 µM and the TGI [49] was greater than 100 µM. For the same compound, the TGI [50] was 3.46 µM, the TGI [51] was 4.23 µM and the TGI [52] was 3.26 µM. The TGI [53] was 4.09 µM, the TGI [54] was 3.7 µM and the TGI [55] was 2.93 µM. The TGI [56] was 3.55 µM.
